In patent US20120065196A1, “AMIDE COMPOUNDS” (priority 2006, published 2012) one finds IC50 data, which are given here for 19 molecules.

The assay has as its target T1, human DGAT1 (Homo sapiens, UniProt O75907).
T1 construct: (N); made in house; host or cells: Sf9 insect cells infected with recombinant baculovirus BAC-DGAT1; microsome fraction
T1 sequence (O75907 1-488): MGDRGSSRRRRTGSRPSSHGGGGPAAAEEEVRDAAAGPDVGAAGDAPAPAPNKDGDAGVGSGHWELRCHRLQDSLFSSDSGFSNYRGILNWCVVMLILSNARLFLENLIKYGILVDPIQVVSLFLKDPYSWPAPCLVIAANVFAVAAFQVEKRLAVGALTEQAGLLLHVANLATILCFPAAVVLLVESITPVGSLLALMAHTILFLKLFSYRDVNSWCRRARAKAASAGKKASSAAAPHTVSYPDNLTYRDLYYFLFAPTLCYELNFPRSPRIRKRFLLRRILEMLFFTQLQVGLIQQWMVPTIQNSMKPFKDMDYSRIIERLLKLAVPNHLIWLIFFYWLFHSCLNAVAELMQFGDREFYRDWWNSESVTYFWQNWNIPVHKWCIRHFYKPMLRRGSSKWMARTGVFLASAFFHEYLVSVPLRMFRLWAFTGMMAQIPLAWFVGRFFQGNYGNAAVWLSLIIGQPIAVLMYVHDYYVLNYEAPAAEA
As to the kind of experiment: Determination of DGAT inhibitory activity (triglyceride synthesis with DGAT1 high expression Sf9 microsome). The format is biochemical. As to conditions: 25 μM dioleoylglycerol, 25 μM [14C]-Oleoyl-CoA, 32° C., 20 min, read-out: hDGAT1 IC50. As to the method: Human DGAT1 gene was cloned by PCR using human adipocyte cDNA (Clontech, QUICK-Clone cDNA, human fat cell, cat #637220) as a template and, based on the DGAT1 gene information reported by Case, S. et al. (Proc. Natl. Acad. Sci. U.S.A. 95 (22), 13018-13023 (1998)), a nucleotide sequence (245-1711 of Genbank Accession No. NM_012079) encoding DGAT1 was amplified with the following PCR primer. The primer nucleotide sequence is shown below.
The PCR reaction was conducted using a KOD-plus kit (TOYOBO). The obtained PCR product was electrophoresed on agarose gel (1%), the DNA fragment amplified by PCR was recovered from the gel, and then digested with restriction enzymes EcoRI and SpeI. The DNA treated with the restriction enzymes was electrophoresed on agarose gel (1%), and the obtained DNA fragment was recovered and ligated with plasmid pFASTBAC1 (Invitrogen) digested with restriction enzymes EcoRI and SpeI to give expression plasmid pFB-DGAT1. The nucleotide sequence of the inserted fragment was confirmed and found to be identical with the nucleotide sequence of DGAT1 (245-1711 of Genbank Accession No. NM_012079). Furthermore, using BAC-TO-BAC Baculovirus Expression System (Invitrogen), recombinant baculovirus BAC-DGAT1 was prepared.
SF9 cells were sown at 1×10^6 cells/ml on Sf-900II SFM medium (1 L, Invitrogen) containing 10% fetal calf serum (Trace), 50 mg/L gentamicin (Invitrogen) and 0.1% Pluronic F-68 (Invitrogen), and shaking culture was performed using a 2 L volume Erlenmeyer flask at 27° C., 100 rpm. After culturing for 24 hrs, recombinant baculovirus BAC-DGAT1 (6.7 mL) was added, and the mixture was further cultured for 3 days. The culture medium was centrifuged at 2,000 rpm for 5 min to give virus-infected cells. The infected cells were washed with a phosphate buffered saline (Invitrogen), centrifuged under the same conditions, and the cells were preserved at −80° C. The cryopreserved cells were thawed in ice, suspended in buffer A (50 mM Tris buffer (30 mL, pH 7.4) containing 20% glycerol, 0.15 M NaCl) supplemented with Complete Protease Inhibitor (Boehringer), and ruptured 3 times with a Polytron homogenizer (Kinematica) at 20,000 rpm for 30 sec. The Sf9 microsome fractions were obtained by a conventional method and cryopreserved at −80° C. as a DGAT1 high expression Sf9 microsome.
As a DGAT1 reaction buffer, a solution having a composition of 100 mM Tris-HCl (pH 7.5), 250 mM sucrose, 150 mM MgCl2, 0.01% bovine serum albumin (BSA) was used. Using this buffer, a given concentration of the test compound and a composition (100 μl) of 25 μM dioleoylglycerol, 25 μM [^14C]-Oleoyl-CoA, 5 μg protein/ml DGAT1 high expression Sf9 microsome, and 1% acetone were subjected to a triglyceride synthesis reaction at 32° C. for 20 min. A mixture of 300 μL of chloroform:methanol (=1:2) was added to the reaction mixture to quench the reaction. The reaction mixture was sufficiently mixed and distilled water (200 μL) was added to partition the mixture between a chloroform layer (lower layer) and an aqueous layer (upper layer). The chloroform layer (50 μL) was spotted on a thin layer chromatography silica gel plate (TLC plate, Merck) and developed with a solvent (n-hexane:diethyl ether:ethyl acetate:acetic acid=255:30:15:0.6). The developed TLC plate was dried, contacted with a BAS imaging plate (manufactured by FUJIFILM) and measured with BAS2500 (manufactured by FUJIFILM) 16 hr later to numerically show the amount of [^14C]-triglyceride (TG amount) produced during the reaction. The inhibitory rate was calculated by the following formula:
Inhibitory rate (%)=(1−(TG amount with addition of test compound−blank TG amount)/(control TG amount−blank TG amount))×100 […]
For `O=C(NCCNC(=O)C1CCN(S(=O)(=O)c2cccnc2)CC1)c1cn(-c2ccccc2)nc1C(F)(F)F` [Example E74, N-(2-(1-phenyl-3-(trifluoromethyl)-1H-pyrazole-4-carboxamido)ethyl)-1-(pyridin-3-ylsulfonyl)piperidine-4-carboxamide], the IC50 (in general, the concentration needed to halve the response being measured) lay in the range of 10 to 100 nM.

With `O=C(NCCNC(=O)[C@H]1CC[C@H](c2n[nH]c(=O)o2)CC1)c1cn(-c2ccccc2)nc1C(F)(F)F` [Example E197, N-(2-(trans-4-(5-oxo-4,5-dihydro-1,3,4-oxadiazol-2-yl)cyclohexanecarboxamido)ethyl)-1-phenyl-3-(trifluoromethyl)-1H-pyrazole-4-carboxamide], the IC50 lay within 10 to 100 nM.

`CC(C)c1nnc([C@H]2CC[C@H](C(=O)NCCNC(=O)c3cn(-c4ccccc4Cl)nc3C(F)(F)F)CC2)o1` [Example E234, 1-(2-chlorophenyl)-N-(2-(trans-4-(5-isopropyl-1,3,4-oxadiazol-2-yl)cyclohexanecarboxamido)ethyl)-3-(trifluoromethyl)-1H-pyrazole-4-carboxamide]: the IC50 was in the range of 100 to 1000 nM.

As to `O=C(NCCNC(=O)N1CCC(NS(=O)(=O)c2ccccc2)CC1)c1cn(-c2ccccc2)nc1C(F)(F)F` [Example E114, N-(2-(1-Phenyl-3-(trifluoromethyl)-1H-pyrazole-4-carboxamido)ethyl)-4-(phenylsulfonamido)piperidine-1-carboxamide], the IC50 lay within 100 to 1000 nM.

In the case of `CC(C)c1nc([C@H]2CC[C@H](C(=O)NCCNC(=O)c3cn(-c4ccccc4)nc3C(F)(F)F)CC2)no1` [Example E228, N-(2-(trans-4-(5-isopropyl-1,2,4-oxadiazol-3-yl)cyclohexanecarboxamido)ethyl)-1-phenyl-3-(trifluoromethyl)-1H-pyrazole-4-carboxamide], the IC50 is 10 to 100 nM.

Turning to `O=C(NCCNC(=O)[C@H]1CC[C@H](c2nc(-c3ccccc3)c[nH]2)CC1)c1cn(-c2ccccc2)nc1C(F)(F)F` [Example E172, 1-Phenyl-N-(2-(trans-4-(4-phenyl-1H-imidazol-2-yl)cyclohexanecarboxamido)ethyl)-3-(trifluoromethyl)-1H-pyrazole-4-carboxamide], the IC50 was 100 to 1000 nM.

Consider `CC(C)CN(C)C(=O)[C@H]1CC[C@H](C(=O)NCCNC(=O)c2cn(-c3ccccc3)nc2C(F)(F)F)CC1` [Example E126, trans-N1-isobutyl-N-1-methyl-N4-(2-(1-phenyl-3-(trifluoromethyl)-1H-pyrazole-4-carboxamido)ethyl)cyclohexane-1,4-dicarboxamide], for which the IC50 lay within 10 to 100 nM.

As to `O=C(NCCNC(=O)C1CCc2nc(-c3ccccc3O)sc2C1)c1cn(-c2ccccc2)nc1C(F)(F)F` (stereo not shown) [Example E221, 2-(2-hydroxyphenyl)-N-(2-(1-phenyl-3-(trifluoromethyl)-1H-pyrazole-4-carboxamido)ethyl)-4,5,6,7-tetrahydrobenzo[d]thiazole-6-carboxamide], the IC50 lay within 10 to 100 nM.

For the molecule `CC(C)(C)c1cnc([C@H]2CC[C@H](C(=O)NCCNC(=O)c3cn(-c4ccccc4)nc3C(F)(F)F)CC2)o1` [Example E214, N-(2-(trans-4-(5-tert-butyloxazol-2-yl)cyclohexanecarboxamido)ethyl)-1-phenyl-3-(trifluoromethyl)-1H-pyrazole-4-carboxamide], the IC50 lay in the range of 10 to 100 nM.

In the case of `CN(CCc1ccncc1)C(=O)NCCNC(=O)c1cn(-c2ccccc2)nc1C(F)(F)F` [Example F1, N-(2-(3-Methyl-3-(2-(pyridin-4-yl)ethyl)ureido)ethyl)-1-phenyl-3-(trifluoromethyl)-1H-pyrazole-4-carboxamide], the IC50 is 1000 to 10000 nM.

Consider `CC(C)c1nc2c(s1)CC(C(=O)NCCNC(=O)c1cn(-c3ccccc3)nc1C(F)(F)F)CC2` (stereo not shown) [Example E242, 2-isopropyl-N-(2-(1-phenyl-3-(trifluoromethyl)-1H-pyrazole-4-carboxamido)ethyl)-4,5,6,7-tetrahydrobenzo[d]thiazole-6-carboxamide], for which the IC50 lay within 10 to 100 nM.

Take `O=C(NCCNC(=O)[C@H]1CC[C@H](C(=O)c2ccccc2)CC1)c1cn(-c2ccccn2)nc1C(F)(F)F` [Example E150, N-(2-(trans-4-benzoylcyclohexanecarboxamido)ethyl)-1-(pyridin-2-yl)-3-(trifluoromethyl)-1H-pyrazole-4-carboxamide]: the 50% inhibitory concentration (IC50) was less than 10 nM.

Turning to `CCCC1CCN(C(=O)NCCNC(=O)c2cn(-c3ccccc3)nc2C(F)(F)F)CC1` [Example E15, N-(2-(1-phenyl-3-(trifluoromethyl)-1H-pyrazole-4-carboxamido)ethyl)-4-propylpiperidine-1-carboxamide], the IC50 was 10 to 100 nM.

For `CC(C)C1CN(C(=O)NCCNC(=O)c2cn(-c3ccccc3)nc2C(F)(F)F)CC1C(=O)c1ccccc1` (stereo not shown) [Example E193, N-(2-(3-benzoyl-4-isopropylpyrrolidine-1-carboxamido)ethyl)-1-phenyl-3-(trifluouromethyl)-1H-pyrazole-4-carboxamide], the IC50 is 1000 to 10000 nM.

For the molecule `O=C(NCCNC(=O)[C@H]1CC[C@H](C(=O)NCCF)CC1)c1cn(-c2ccccc2)nc1C(F)(F)F` [Example E165, trans-N1-(2-fluoroethyl)-N4-(2-(1-phenyl-3-(trifluoromethyl)-1H-pyrazole-4-carboxamido)ethyl)cyclohexane-1,4-dicarboxamide], the IC50 lay in the range of 100 to 1000 nM.

Consider `O=C(N[C@H]1CC[C@H](C(=O)NCCNC(=O)c2cn(-c3ccccc3)nc2C(F)(F)F)CC1)c1ccccc1` [Example E91, N-(2-(trans-4-Benzamidocyclohexanecarboxamido)ethyl)-1-phenyl-3-(trifluoromethyl)-1H-pyrazole-4-carboxamide], for which the IC50 was 100 to 1000 nM.

Consider `O=C(NCCNC(=O)N1CCC(C(=O)N2CCCC2)CC1)c1cn(-c2ccccc2)nc1C(F)(F)F` [Example E63, N-(2-(1-phenyl-3-(trifluoromethyl)-1H-pyrazole-4-carboxamido)ethyl)-4-(pyrrolidine-1-carbonyl)piperidine-1-carboxamide], for which the IC50 fell in the range of 100 to 1000 nM.

`O=C(NCCNC(=O)N1CCc2nc[nH]c2C1)c1cn(-c2ccccc2)nc1C(F)(F)F` [Example E95, N-(2-(1-phenyl-3-(trifluoromethyl)-1H-pyrazole-4-carboxamido)ethyl)-6,7-dihydro-3H-imidazo[4,5-c]pyridine-5(4H)-carboxamide]: the half-maximal inhibitory concentration (IC50) lay in the range of 100 to 1000 nM.

With `O=C(NCCNC(=O)N1CCC(c2nc(-c3cccnc3)no2)CC1)c1cn(-c2ccccc2)nc1C(F)(F)F` [Example E101, N-(2-(1-phenyl-3-(trifluoromethyl)-1H-pyrazole-4-carboxamido)ethyl)-4-(3-(pyridin-3-yl)-1,2,4-oxadiazol-5-yl)piperidine-1-carboxamide], the IC50 is 10 to 100 nM.
